This is an account of results in ChEMBL document CHEMBL3739261, “Synthesis and antibacterial activity evaluation of C-5 side chain modified analogues of FYL-66, a potential agent against methicillin-resistant Staphylococcus aureus” (Medchemcomm, 2015).

By MIC is commonly meant the lowest concentration that inhibits growth of the organism. As usually defined, the solubility is the concentration that dissolves in the medium under given conditions. In general, logP refers to a log measure of how a compound divides between an organic and an aqueous phase. High values mean higher lipophilicity, low ones lower lipophilicity. The term IC50 denotes the midpoint of a concentration-inhibition curve.

≈ marks a conversion by molar mass, not a printed value.

Data set [1] has as its system Staphylococcus aureus. Description: Antibacterial activity against methicillin-resistant Staphylococcus aureus ATCC 43300 incubated for 18 hrs by broth microdilution method. Format: functional. The conditions noted are these: ATCC 43300, 18 h. On the technique in general: Broth dilution looks for growth in wells or tubes with falling amounts of substance.
Another data set relates to Pseudomonas aeruginosa. Description: Antibacterial activity against Pseudomonas aeruginosa ATCC 27853 incubated for 18 hrs by broth microdilution method. The format is functional. The following applies: ATCC 27853, 18 h.
The test system of the next data set is Escherichia coli. Description: Antibacterial activity against Escherichia coli ATCC 25922 incubated for 18 hrs by broth microdilution method. The format is functional. The conditions noted are these: ATCC 25922, 18 h.
Data set [2] is described as follows: Solubility of compound in distilled water after 24 hrs by HPLC analysis. Format: physicochemical.
Data set [3] deals with Staphylococcus aureus. Description: Antibacterial activity against methicillin-susceptible Staphylococcus aureus ATCC 25923 incubated for 18 hrs by broth microdilution method. The format is functional. The conditions noted are these: ATCC 25923, 18 h.
Data set [4] has as its system Staphylococcus aureus. Description: Antibacterial activity against methicillin-susceptible Staphylococcus aureus ATCC 29213 incubated for 18 hrs by broth microdilution method. Format: functional. The following applies: ATCC 29213, 18 h.
Data set [5] relates to Staphylococcus aureus. In words: Antibacterial activity against methicillin-susceptible Staphylococcus aureus ATCC 6538 incubated for 18 hrs by broth microdilution method. The conditions noted are these: ATCC 6538, 18 h. Format: functional.
Data set [6] is described as follows: Octanol/water partition coefficient, log P of the compound by HPLC assay. Format: physicochemical.
A short description of data set [7]: Cytotoxicity against human L02 cells after 48 hrs by MTT assay. The format is cell-based. The following applies: L02, 48 h.
Data set [8] deals with Staphylococcus aureus. Description: Antibacterial activity against methicillin-resistant Staphylococcus aureus ATCC 33591 incubated for 18 hrs by broth microdilution method. The conditions noted are these: ATCC 33591, 18 h. The format is functional.
In data set [9] the test system is Staphylococcus aureus. In words: Antibacterial activity against methicillin-susceptible Staphylococcus aureus CMCC 2603 incubated for 18 hrs by broth microdilution method. The format is functional. The following applies: CMCC 2603, 18 h.
Data set [10] can be described thus: Cytotoxicity against HEK293A cells after 48 hrs by MTT assay. Format: cell-based. The conditions noted are these: Homo sapiens, HEK293-A. Background: Formazan colour is commonly taken as a measure of viable cells.

With `O=C1O[C@@H](CSc2cccs2)CN1c1ccc(-n2cc(-c3ccccn3)cn2)c(F)c1`, the minimal inhibitory concentration (MIC) against Staphylococcus aureus [1], against Pseudomonas aeruginosa, in the data set on Escherichia coli, in the data set with Staphylococcus aureus [3], with Staphylococcus aureus [4] and against Staphylococcus aureus [5] was > 32 µg/mL throughout. In addition, the MIC in the data set with Staphylococcus aureus [8] and against Staphylococcus aureus [9] was > 32 µg/mL each time. The compound further returned a solubility at 24 h in data set [2] of 8.5 µM (≈ 3.85 µg/mL). Also, the logP in data set [6] was found to be 4.29. Besides, the IC50 in data set [7] and in data set [10] was > 400 µg/mL in each case.

For the compound `COC(=O)CC1CCN(C[C@H]2CN(c3ccc(-n4cc(-c5ccccn5)cn4)c(F)c3)C(=O)O2)CC1`, the minimal inhibitory concentration (MIC) with Staphylococcus aureus [1], against Pseudomonas aeruginosa, in the data set on Escherichia coli, with Staphylococcus aureus [3], in the data set on Staphylococcus aureus [4] and in the data set on Staphylococcus aureus [5] was > 32 µg/mL in each case. For the same compound, the MIC in the data set on Staphylococcus aureus [8] and with Staphylococcus aureus [9] was > 32 µg/mL throughout. In data set [2], this compound had a solubility at 24 h of 92.1 µM (≈ 45.5 µg/mL). The logP in [6] is 1.78. For the same compound, the IC50 in data set [7] was > 400 µg/mL; in [10] it was 224 µg/mL (≈ 454 µM).

Turning to `O=C1O[C@@H](CN2CCN(CCO)CC2)CN1c1ccc(-n2cc(-c3ccccn3)cn2)c(F)c1`, the MIC against Staphylococcus aureus [1], against Pseudomonas aeruginosa, with Escherichia coli, against Staphylococcus aureus [3], against Staphylococcus aureus [4] and against Staphylococcus aureus [5] was > 32 µg/mL throughout. Moreover, the MIC with Staphylococcus aureus [8] and against Staphylococcus aureus [9] was > 32 µg/mL each time. Besides, in [2], the solubility at 24 h came out at 125 µM (≈ 58.1 µg/mL). For the same compound, the lipophilicity (logP) in data set [6] is 1.09. In addition, the IC50 in data set [7] and in data set [10] was > 400 µg/mL in each case.

`O=C(CF)NC[C@H]1CN(c2ccc(-n3cc(-c4ccccn4)cn3)c(F)c2)C(=O)O1`: the MIC with Staphylococcus aureus [1] is 4 µg/mL (≈ 9.68 µM); with Pseudomonas aeruginosa, > 32 µg/mL; against Escherichia coli, > 32 µg/mL; in the data set with Staphylococcus aureus [3], 4 µg/mL (≈ 9.68 µM); in the data set on Staphylococcus aureus [4] it was 4 µg/mL (≈ 9.68 µM); with Staphylococcus aureus [5] it was 4 µg/mL (≈ 9.68 µM). Further, the MIC against Staphylococcus aureus [8] and against Staphylococcus aureus [9] was 4 µg/mL (≈ 9.68 µM) in each case. The compound further gave a solubility at 24 h in data set [2] of 61.8 µM (≈ 25.5 µg/mL). The same compound showed a logP in [6] of 1.29. The figures for the IC50 in data set [7] and in [10] were 106 µg/mL (≈ 256 µM) and > 400 µg/mL, respectively.

For the compound `NC(=O)[C@H]1CN(c2ccc(-n3cc(-c4ccccn4)cn3)c(F)c2)C(=O)O1`, the MIC against Staphylococcus aureus [1] was 16 µg/mL (≈ 43.6 µM); with Pseudomonas aeruginosa, > 32 µg/mL; in the data set on Escherichia coli it was > 32 µg/mL; in the data set on Staphylococcus aureus [3], 16 µg/mL (≈ 43.6 µM); with Staphylococcus aureus [4], 16 µg/mL (≈ 43.6 µM); with Staphylococcus aureus [5] it was 16 µg/mL (≈ 43.6 µM). Besides, the MIC in the data set on Staphylococcus aureus [8] and against Staphylococcus aureus [9] was 16 µg/mL (≈ 43.6 µM) each time. Moreover, in data set [2], the solubility at 24 h was 27.2 µM (≈ 9.99 µg/mL). In addition, the logP in data set [6] is 1.59. Besides, the IC50 in data set [7] was 119 µg/mL (≈ 324 µM); in data set [10], 152 µg/mL (≈ 414 µM).

In the case of `CCNC(=O)NC[C@H]1CN(c2ccc(-n3cc(-c4ccccn4)cn3)c(F)c2)C(=O)O1`, the MIC in the data set with Staphylococcus aureus [1] is 8 µg/mL (≈ 18.8 µM); against Pseudomonas aeruginosa, > 32 µg/mL; against Escherichia coli, > 32 µg/mL; against Staphylococcus aureus [3], 8 µg/mL (≈ 18.8 µM); with Staphylococcus aureus [4] it was 8 µg/mL (≈ 18.8 µM); in the data set with Staphylococcus aureus [5] it was 8 µg/mL (≈ 18.8 µM). Moreover, the MIC in the data set on Staphylococcus aureus [8] and in the data set on Staphylococcus aureus [9] was 8 µg/mL (≈ 18.8 µM) in each case. This compound gave a solubility at 24 h in [2] of 222 µM (≈ 94.1 µg/mL). In data set [6], the logP was 2.45. Besides, the IC50 in data set [7] is > 400 µg/mL; in data set [10] it was 29 µg/mL (≈ 68.3 µM).

Consider `O=C1CCC(=O)N1C[C@H]1CN(c2ccc(-n3cc(-c4ccccn4)cn3)c(F)c2)C(=O)O1`, for which the MIC in the data set with Staphylococcus aureus [1], in the data set with Pseudomonas aeruginosa, against Escherichia coli, in the data set on Staphylococcus aureus [3], in the data set with Staphylococcus aureus [4] and in the data set with Staphylococcus aureus [5] was > 32 µg/mL each time. In addition, the MIC against Staphylococcus aureus [8] and in the data set with Staphylococcus aureus [9] was > 32 µg/mL in each case. For the same compound, the solubility at 24 h in data set [2] is 45.3 µM (≈ 19.7 µg/mL). This compound also came in with a logP in data set [6] of 1.58. Also, the concentration for half-maximal inhibition (IC50) in [7] and in [10] was > 400 µg/mL throughout.

`CCN1CCN(C[C@H]2CN(c3ccc(-n4cc(-c5ccccn5)cn4)c(F)c3)C(=O)O2)CC1`: the MIC against Staphylococcus aureus [1], against Pseudomonas aeruginosa, against Escherichia coli, with Staphylococcus aureus [3], with Staphylococcus aureus [4] and against Staphylococcus aureus [5] was > 32 µg/mL throughout. Also, the MIC in the data set on Staphylococcus aureus [8] and against Staphylococcus aureus [9] was > 32 µg/mL each time. In addition, the solubility at 24 h in [2] was found to be 706 µM (≈ 318 µg/mL). The logP in data set [6] turned out to be 2.19. Also, the IC50 in data set [7] and in data set [10] was 99 µg/mL (≈ 220 µM) in each case.
